Laboratory results as given in patent US20040152191A1 (priority 2001, published 2004).

How the values were obtained:
[1] = tested on: human hematopoietic CD34+ stem cells; assay: Production of dendritic cells from human hematopoietic CD34+ stem cells, cell markers (Example 2); type: cell-based; conditions: TNF-α 2.5 ng/ml or RU 41740 6.25 ng/ml from D0 to D5
Description: Purification: After Ficoll, the CD34+ represented 4.2% of the mononucleated cells (MNC).
After purification by positive selection with the MAC System procedure (Miltenyi Biotec) with beads coated with an anti-CD34 antibody, 90% of the cells are CD34+.
Culture Medium: RPMI containing 10% of FCS, 2% of penicillin/streptomycin, 1% of glutamine and 1% of sodium bicarbonate.
Culture in 2 ml wells with 5×10^5 cells per well. from D0 to D5: […] at 25 ng/ml, GM-CSF at 100 ng/ml and either TNF-α at 2.5 ng/ml […]
from D5 to D14: GM-CSF at 100 ng/ml
Duplication of the Cultures: -the cells are homogenized in the well, then 1 ml sample is taken and deposited in a fresh well. 1 ml of culture medium is then added to the fresh well and the old one, as well as GM-CSF as a function of the medium added.
A fluorescence-labelled anti-KLH primary antibody was used as control in order to be able to subtract the non-specific fluorescence of the signals obtained.

[2] = tested on: dendritic cells derived from human monocytes; assay: Effect of LCOS 1013 on maturation of dendritic cells derived from human monocytes, phenotype by flow cytometry (Examples 11, 12); type: cell-based
Description: The purified monocytes (more than 90%) were placed in culture in RPMI medium containing 10% AB human serum in the presence of growth factors GM-CSF (200 U/ml) and IL-4 (500 U/ml) for 6 days in order to induce the differentiation of the monocytes into immature dendritic cells.
The phenotype of the cells thus generated (after 8 days of culture) was examined by flow cytometry. The expression of the marker specific for maturation of the dendritic cells (CD83), of the co-stimulatory molecules CD80, CD86, CD40, of the adhesion molecule CD54, of the class II HLA-DR molecule of the major histocompatibility complex was analyzed. The expression of the CD1a molecule, specific marker of the Langerhans cells, immature dendritic cells, was also tested.

[3] = Donor 1, TNF-α 200 U/ml or LCOS 1013 25 μg/ml for 48 hours
[4] = Donor 2, TNF-α 200 U/ml or LCOS 1013 25 μg/ml for 48 hours
[5] = Donor 3, TNF-α 200 U/ml or LCOS 1013 25 μg/ml for 48 hours
[6] = Example 12, single donor, TNF-α 200 U/ml

TNF-α
CD1a, percentage of cells expressing the marker ([1]; D8): 8.7% | CD14, percentage of cells expressing the marker ([1]; D8): 40% | CD34, percentage of cells expressing the marker ([1]; D8): 0.7% | CD40, percentage of cells expressing the marker ([1]; D8): 44% | CD45, percentage of cells expressing the marker ([1]; D8): 96% | CD54, percentage of cells expressing the marker ([1]; D8): 33% | CD83, percentage of cells expressing the marker ([1]; D8): 0.5% | CD86, percentage of cells expressing the marker ([1]; D8): 13% | HLA-DR, percentage of cells expressing the marker ([1]; D8): 88% | CD1a, percentage of cells expressing the marker ([1]; D12): 8.4% | CD14, percentage of cells expressing the marker ([1]; D12): 63.2% | CD40, percentage of cells expressing the marker ([1]; D12): 64.3% | CD54, percentage of cells expressing the marker ([1]; D12): 61.8% | CD80, percentage of cells expressing the marker ([1]; D12): 5.3% | CD83, percentage of cells expressing the marker ([1]; D12): 1.3% | CD86, percentage of cells expressing the marker ([1]; D12): 7.4% | HLA-DQ, percentage of cells expressing the marker ([1]; D12): 54.1% | HLA-DR, percentage of cells expressing the marker ([1]; D12): 80.3% | CD1a, percentage of cells expressing the marker ([1]; D14): 10.3% | CD14, percentage of cells expressing the marker ([1]; D14): 54.1% | CD83, percentage of cells expressing the marker ([1]; D14): 0.8% | CD86, percentage of cells expressing the marker ([1]; D14): 2.2% | HLA-DR, percentage of cells expressing the marker ([1]; D14): 69.9% | CD1a, MFI [2, 3]: 28 | CD1a, percentage of expression [2, 3]: 13.2% | CD40, MFI [2, 3]: (1084) | CD40, percentage of expression [2, 3]: 99.4% | CD54, MFI [2, 3]: (195) | CD54, percentage of expression [2, 3]: 98.4% | CD80, MFI [2, 3]: (85) | CD80, percentage of expression [2, 3]: 69.7% | CD83, MFI [2, 3]: (132) | CD83, percentage of expression [2, 3]: 91% | CD86, MFI [2, 3]: (209) | CD86, percentage of expression [2, 3]: 99.5% | HLA-DR, MFI [2, 3]: (803) | HLA-DR, percentage of expression [2, 3]: 99.5% | CD1a, MFI [2, 4]: 215 | CD1a, percentage of expression [2, 4]: 20.6% | CD40, MFI [2, 4]: (1104) | CD40, percentage of expression [2, 4]: 99.2% | CD54, MFI [2, 4]: (355) | CD54, percentage of expression [2, 4]: 97.8% | CD80, MFI [2, 4]: (89) | CD80, percentage of expression [2, 4]: 55.1% | CD83, MFI [2, 4]: (221) | CD83, percentage of expression [2, 4]: 88% | CD86, MFI [2, 4]: (299) | CD86, percentage of expression [2, 4]: 99.1% | HLA-DR, MFI [2, 4]: (1108) | HLA-DR, percentage of expression [2, 4]: 98.6% | CD1a, expression [2, 5]: Neg. | CD40, MFI [2, 5]: (918) | CD40, percentage of expression [2, 5]: 98.7% | CD54, MFI [2, 5]: (154) | CD54, percentage of expression [2, 5]: 95.9% | CD80, MFI [2, 5]: (65) | CD80, percentage of expression [2, 5]: 48.7% | CD83, MFI [2, 5]: (108) | CD83, percentage of expression [2, 5]: 91.8% | CD86, MFI [2, 5]: (209) | CD86, percentage of expression [2, 5]: 98.5% | HLA-DR, MFI [2, 5]: (768) | HLA-DR, percentage of expression [2, 5]: 98.9% | CD40, percentage of expression [2, 6]: 83.44% | CD40, second line of cell (MFI) [2, 6]: 289.54 | CD54, percentage of expression [2, 6]: 87.12% | CD54, second line of cell (MFI) [2, 6]: 137.49 | CD80, percentage of expression [2, 6]: 0.49% | CD80, second line of cell (MFI) [2, 6]: 95.04 | CD83, percentage of expression [2, 6]: 70.02% | CD83, second line of cell (MFI) [2, 6]: 65.55 | CD86, percentage of expression [2, 6]: 94.44% | CD86, second line of cell (MFI) [2, 6]: 180.81 | HLA-DR, percentage of expression [2, 6]: 92.12% | HLA-DR, second line of cell (MFI) [2, 6]: 877.54
